From patent US20240010680A1, “PEPTIDE DISINFECTANT FOR PREVENTING CORONAVIRUSES” (Xiamen University, priority 2021, published 2024) come the findings set out here.

Where no end group is shown, it is not given here.

As a reminder, the Kd is the constant that tells how readily two partners part at equilibrium. Read a low Kd as higher affinity.

Chain of hACE2 (Q9BYF1 18-805): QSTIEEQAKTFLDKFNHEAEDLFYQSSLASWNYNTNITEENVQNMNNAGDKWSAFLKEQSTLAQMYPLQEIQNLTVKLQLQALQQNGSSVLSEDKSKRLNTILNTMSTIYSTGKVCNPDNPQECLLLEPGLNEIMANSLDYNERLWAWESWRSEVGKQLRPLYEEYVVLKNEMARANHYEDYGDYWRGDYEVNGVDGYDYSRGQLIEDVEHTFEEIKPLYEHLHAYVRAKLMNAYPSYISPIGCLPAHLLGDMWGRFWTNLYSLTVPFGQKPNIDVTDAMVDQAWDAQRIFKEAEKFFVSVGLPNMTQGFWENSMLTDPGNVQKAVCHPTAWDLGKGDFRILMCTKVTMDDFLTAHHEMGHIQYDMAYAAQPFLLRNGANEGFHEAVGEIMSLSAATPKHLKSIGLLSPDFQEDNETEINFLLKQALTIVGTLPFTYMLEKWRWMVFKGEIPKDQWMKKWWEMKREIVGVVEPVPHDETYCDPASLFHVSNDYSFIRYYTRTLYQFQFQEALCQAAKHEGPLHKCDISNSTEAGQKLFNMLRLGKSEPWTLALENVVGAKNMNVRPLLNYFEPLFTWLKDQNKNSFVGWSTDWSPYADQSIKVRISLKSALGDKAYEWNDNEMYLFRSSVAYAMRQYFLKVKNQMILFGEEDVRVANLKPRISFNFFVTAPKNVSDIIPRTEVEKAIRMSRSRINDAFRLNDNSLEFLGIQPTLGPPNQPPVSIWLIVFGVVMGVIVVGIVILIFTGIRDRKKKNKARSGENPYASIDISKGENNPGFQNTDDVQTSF

The experiment has as its target hACE2 (Homo sapiens, UniProt Q9BYF1). Nature of the experiment: Biacore T200 molecular binding (affinity analysis) of peptides on a CM5-hACE2 chip. An excerpt: Embodiment 1: Testing a Binding Capacity Between Peptide1 & Peptide2 and Derivatives Thereof and hACE2 Based on a Biacore Molecular Binding System (e.g., GE Biacore T200)
Apparatus: GE Biacore T200.
Materials and reagents: Series S Sensor Chip CM5 (GE Life100530), hACE2 purified protein, Peptide1 & Peptide2 and their derivatives (See Table 1), Amine Coupling Kit (GELife100050, Phosphate-buffered saline (PBS), glycine-hydrochloric acid buffer solution (pH 2.5)).
(1) Preparing a Capture Surface and a Binding Experiment
Materials: 1-(3-Dimethylaminopropyl)-3-ethylcarbodiimide hydrochloride (EDC), N-Hydroxysuccinimide (NHS), ethanolamine (an amine coupling kit), PBS, hACE2, Series S Sensor Chip CM5.
Specific Steps: • a. The GE Biacore T200 is started, the Series S Sensor Chip CM5 is embedded into the GE Biacore T200, the PBS is degassed to obtain a degassed PBS, and the degassed PBS is used throughout the experiment; • b. The NHS, the EDC, the ethanolamine, and the hACE2 (1 mg/mL) are placed on a feeding plate of the GE Biacore T200 according to volumes indicated by the GE Biacore T200 using Eppendorf (EP) tubes in sufficient quantities; • c. A sample is injected at a flow rate of 5 μL/min, an activation of the Series S Sensor Chip CM5, amine coupling of the hACE2, and saturating an activated carboxyl group that is uncoupled with the hACE2 using the ethanolamine are sequentially performed to obtain an RUs value of the hACE2, and the RUs value is 14826.0; • d. A mobile solution (the degassed PBS) is closed, a command window is closed, and a report is served to obtain a CM5-hACE2 chip;
(2) Affinity analysis of peptides with hACE from Table 1
Materials: the PBS, the CM5-hACE2 chip, the peptides in the Table 1, and the glycine-hydrochloric acid buffer solution (pH 2.5).
Specific Steps: • a. Preparing different dilutions as samples for testing: the peptides in Table 1 to be tested at a concentration of 3 mmol/L (mM) are dissolved and sequentially diluted into different dilutions of 100 μmol/L (μM), 60 μM, 30 μM, 10 μM, 3 μM, 1 μM, 0.3 μM, and 0 using the PBS to obtain the samples. Each of the different dilutions is ensured to have a volume of no less than 400 μL and separately packaged on EP tubes. The samples are placed on a test plate of the GE Biacore T200, and the test plate is stuck in a test slot; • b. […]
A general note: In SPR one partner is held on a chip, and binding of the other changes the refractive index at the surface.
YKYRYL [Peptide1, YKYRYL] registered a Kd of 50.6 µM. This counts as double-digit micromolar. The substance YRYKYL [Peptide11, YRYKYL] returned a Kd of 60.7 µM.

The substance YSYINK [Peptide2, YSYINK] came in with a Kd of 95 µM. Under YTYINK [Peptide22, YTYINK] stands 58.4 µM.
